# Experiments:
# [1] = system: macrophages in tumor sites; experiment: Macrophage accumulation in tumor sites (lung metastasis model); type: in vivo, mouse; conditions: wild-type mice, vs solvent
# Protocol: Lung cells of the lung metastasis model of wild-type mice described in the section 4 above or lung cells of the lung metastasis model of FNT-cKO mice and FNT^flox/flox mice described in the section 7(2) above were obtained from the right lower lobe by digestion with collagenase and DNase. The cells were washed with PBS supplemented with 2% fetal bovine serum, resuspended, and filtered through a 70-μm strainer. The Fc receptor was blocked by incubation with an anti-mouse CD16/32 antibody (BD biosciences), and thereafter the cells were stained with a fluorescently labeled antibody. Anti-mouse CD11b-Brilliant Violet 510, anti-mouse Ly6C-APC-Cy7, and anti-mouse Ly6G-Alexa Fluor 700 were purchased from Biolegend. The stained cells were analyzed using the Gallios flow cytometer (Beckman coulter). Each mouse was perfused with PBS, and the left lung was isolated. Optimal Cutting Temperature Compound (OCT) (Sakura Finetek) was injected from the trachea to embed the lung in OCT, and the lung was then frozen in liquid nitrogen. Fresh frozen sections with a thickness of 8 μm were prepared, and fixed with 4% paraformaldehyde-PBS. […] Fluorescence Images were obtained with an SP5 confocal microscope (Leica Microsystems).
# p53-MDM2 interaction = p53-MDM2 interaction (Homo sapiens, UniProt Q00987); experiment: HTRF binding inhibition assay, p53-MDM2 control interaction
# From the text: By the same HTRF assay as described above, the abilities of disulfiram to inhibit the FROUNT-CCR2 interaction or the FROUNT-CCR5 interaction were investigated. As the CCR5 pro-C peptide, the 16 residues […] (SEQ ID NO:4) in the C-terminal region of CCR5 was used. As a control, the p53-MDM2 interaction (which is inhibited by an MDM-2-specific inhibitor Nutlin), which is also a helix peptide-protein interaction like the interaction between FROUNT and CCR2 or CCR5 but is not related thereto, was used.
# FROUNT protein = biological target: T1, FROUNT protein (Homo sapiens, UniProt Q9BW27); experiment: NMR analysis of binding to FROUNT fragment
# T1 construct: A fragment consisting of the region of the 500th to 656th amino acids of FROUNT protein; made in house
# T1 sequence (Q9BW27 500-656): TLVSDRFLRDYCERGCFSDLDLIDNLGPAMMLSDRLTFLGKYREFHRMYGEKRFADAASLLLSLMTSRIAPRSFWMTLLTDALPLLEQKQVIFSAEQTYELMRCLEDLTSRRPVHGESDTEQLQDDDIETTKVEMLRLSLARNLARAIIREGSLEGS
# Protocol: A fragment consisting of the region of the 500th to 656th amino acids of FROUNT protein and a CCR2 pro-C region fragment of 16 residues (SEQ ID NO:3) were prepared, and the binding state between the two fragments and the binding state between FROUNT protein and disulfiram were investigated by NMR analysis.
# LLC tumor = experiment: Combined use with anti-PD-1 antibody, LLC tumor-bearing model; type: in vivo, mouse; conditions: DSF in feed from Day 4, anti-PD-1 antibody 0.2 mg i.p. x4
# Protocol: (§1) To provide an example of combined use of an anticancer drug and disulfiram (DSF), the effect of combined use of an anti-PD-1 antibody, which is an anticancer drug targeting an immune checkpoint molecule, and DSF was studied using an LLC tumor-bearing model and a B16 tumor-bearing model. The B16 tumor-bearing model was prepared by transplanting 5×10^5 B16 melanoma cells to the right abdomen of each of wild-type C57BL/6 mice. Preparation of the LLC tumor-bearing model was carried out in the same manner as in the above-described section 3. A feed supplemented with DSF was provided in the same manner as in the above-described section 3.
# (§2) The day of the transplantation of the tumor cells to the mice was defined as Day 0. From Day 4, the mice were fed with the feed supplemented with DSF or a control feed every day during the experimental period. An anti-PD-1 antibody (J43, manufactured by BioXcell) was intraperitoneally administered once at a dose of 0.2 mg on each of Day 5, Day 8, Day 14, and Day 18 (four times in total). To provide a control for the antibody administration, PBS was intraperitoneally administered. The tumor size was measured using a caliper twice a week, and the tumor volume was calculated.
# [2] = system: human leukocyte cell line THP-1; experiment: In vitro chemotaxis assay, THP-1; type: cell-based; conditions: THP-1, concentration without cytotoxicity
# Protocol: A human leukocyte cell line THP-1 was counted and resuspended in Boyden buffer (RPMI medium supplemented with 0.1% BSA), and the cells were preincubated with disulfiram before the chemotaxis assay. The cell migration activity was measured using a 96-well ChemoTX Chemotaxis Chamber (Neuro probe) with a polycarbonate filter with a pore size of […] Chemokine was applied to the lower chamber of the plate, and the cells were applied to the upper chamber. After incubation at 37° C. in 5% CO2 for 90 minutes, the filter was removed, and the number of migrated cells in the lower chamber was counted using Cell Counting Kit F (Dojindo Laboratories).
# B16F10 melanoma cells = experiment: WST-1 proliferation assay, B16F10 melanoma cells; type: cell-based; conditions: WST-1, 48 hours
# Protocol: (§3) The cytotoxicity of inhibitors was tested by using LDH Cytotoxicity Detection Kit (TaKaRa) according to the manufacturer's instructions. Briefly, tumor cells were cultured in the presence or absence of an agent (disulfiram or 5FU) for 72 hours, and the culture supernatant was then collected and tested for the concentration of lactate dehydrogenase released from damaged cells. For measurement of cell proliferation, cells were incubated in a plate well together with an inhibitor for 48 hours. During the last 30 minutes, WST-1 (Dojindo Laboratories) was added to the culture liquid, and the absorbance of each well was measured at 450 nm versus 650 nm reference using EnVision (PerkinElmer) to detect the formazan level.
# [3] = system: LLC (Lewis lung cancer) cells; experiment: Subcutaneous tumor growth model (LLC); type: in vivo, mouse; conditions: 0.8 mg/g in feed, oral, Day 4 to Day 11, vs control group
# Protocol: For evaluation of the subcutaneous tumor growth, LLC (Lewis lung cancer) cells (5×10^5) were suspended in 50 μL of PBS, and subcutaneously administered to the right abdomen of each mouse. The tumor size was measured using a caliper twice a week. The tumor volume was calculated according to the following equation. Tumor volume=(tumor shorter diameter)^2×tumor longer diameter/2 In order to investigate the antitumor effect in the subcutaneous tumor growth model, disulfiram was added in an amount of 0.8 mg/g to CE-2 powder feed (CLEA Japan, Inc.) supplemented with 5% sucrose (Wako), and the mice were fed therewith every day during the period from Day 4 to Day 11 post tumor inoculation. The control group was fed with a feed supplemented with the same amount of sucrose.
# LLC tumor cells = experiment: LDH cytotoxicity assay, LLC tumor cells; type: cell-based; conditions: LDH release, 72 hours
# Protocol: as §3
# B16 melanoma cells = experiment: Combined use with anti-PD-1 antibody, B16 tumor-bearing model; type: in vivo, mouse; conditions: DSF in feed from Day 4, anti-PD-1 antibody 0.2 mg i.p. x4
# Protocol: as §1, §2
# Sequence of p53-MDM2 interaction (Q00987 whole entry): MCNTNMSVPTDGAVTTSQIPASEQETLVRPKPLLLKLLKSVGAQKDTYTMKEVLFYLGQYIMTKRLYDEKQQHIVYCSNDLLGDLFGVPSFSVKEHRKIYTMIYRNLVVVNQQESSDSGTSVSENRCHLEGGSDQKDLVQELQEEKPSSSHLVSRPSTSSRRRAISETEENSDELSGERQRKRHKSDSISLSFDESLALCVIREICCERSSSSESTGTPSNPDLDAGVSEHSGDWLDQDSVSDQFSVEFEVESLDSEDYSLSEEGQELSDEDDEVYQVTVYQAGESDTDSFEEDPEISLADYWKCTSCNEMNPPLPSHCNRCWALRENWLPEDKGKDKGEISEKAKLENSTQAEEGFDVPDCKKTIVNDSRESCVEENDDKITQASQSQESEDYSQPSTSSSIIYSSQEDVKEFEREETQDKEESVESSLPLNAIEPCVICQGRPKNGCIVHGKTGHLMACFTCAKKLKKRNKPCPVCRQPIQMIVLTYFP
smiles,measurement,setting,value
"CCN(CC)C(=S)SSC(=S)N(CC)CC [DSF, disulfiram]",accumulation of macrophages in tumor sites,[1],reduced
same,IC50,p53-MDM2 interaction; p53-MDM2 control interaction,> 1 µM
same,inhibition of p53-MDM2 interaction,p53-MDM2 interaction; result in words,did not inhibit
same,interaction with FROUNT / binding site on FROUNT,FROUNT protein,directly interact
same,hyperplasia of cancer cells (tumor volume),LLC tumor,inhibited
same,cell migration mediated by CCL2,[2],inhibited
same,growth-inhibiting action on B16F10 melanoma cells,B16F10 melanoma cells,did not show any action
same,tumor volume,[3],significantly smaller
same,cytotoxic activity on LLC tumor cells,LLC tumor cells,did not show cytotoxic activity
same,inhibitory effect on cancer hyperplasia (tumor volume),B16 melanoma cells,not observed at a significant level
